Columns and labels:
[1] = tested on: PBMCs from a cART-treated HIV-1 patient; test: Cytotoxicity in PBMCs from HIV-1-infected patient (PI staining, flow cytometry); type: cell-based, human; details: PBMCs of cART-treated HIV-1 patient, 24 h; birinapant 50 nM, PEP005 5 nM
Description: Supplementary file Data_Sheet_3.PDF: FIGURE S3 The combined effect of birinapant (50 nM) and PEP005 (5 nM) on cytotoxicity in PBMCs obtained from HIV-1-infected patients. PBMCs from a cART-treated HIV-1 patient were cultured for 24 h in the presence or absence of drug(s), and the percentage of propidium iodide (PI)^+ cells were measured by flow cytometric analysis. Click here for additional data file.

[2] = tested on: ACH-2 cells; test: Living cell numbers of ACH-2 cells in the presence of drug(s); type: cell-based; details: birinapant 50 nM; for cell toxicity / replication of ACH-2 cells: PEP005 5 nM (Figure 2C)
Description: FIGURE 2 (A) Effect of birinapant when combined with TNF-α. The supernatant p24 levels with birinapant (1∼100 nM) in ACH-2 cell culture on day 2 are shown in white bars, and p24 values with birinapant when combined with TNF-α (10 ng/ml) are shown in black bars. (B) HIV-1 production from ACH-2 cells when reactivated by PEP005 (0.05∼50 nM) for 24 h. (C) Changes in the living cell numbers in the presence of drug(s) on days 1, 3, and 5.

[3] = tested on: latent HIV-1-infected U1 cells; test: HIV reactivation from latent cells: supernatant p24 antigen; type: cell-based; details: day 2, single drug (Figure 1B)
Description: The reactivation of HIV-1 from latently infected cells was determined by the measurement of supernatant p24 antigen and intracellular HIV-1 RNA levels. ACH-2 cells or U1 cells (5 × 10^5 cells/mL) were placed in 96-well plates, and then the cells were incubated with different concentrations of drugs for 24 h to extract RNA and for 48 h to collect the supernatant. The increase in supernatant p24 antigen levels was measured using […] G1200 (Fujirebio, Tokyo, Japan). The total RNA was extracted using an RNeasy Mini Kit (Qiagen, Hilden, Germany), following the manufacturer’s protocols. The cDNA was synthesized using PrimeScript RT Master Mix (Takara Bio, Shiga, Japan), and quantitative real-time PCR analyses for the intracellular HIV-1 RNA were carried out with PowerUp^TM SYBR Green Master Mix (Applied Biosystems, Foster City, CA, United States). The oligonucleotide primers used were as follows: 5′-[…]-3′ (forward) and 5′-[…]-3′ (reverse) for HIV-RNA detection; 5′-[…]-3′ (forward) and 5′-[…]-3′ (reverse) for β-actin. The HIV-RNA expressions were normalized with that of β-actin, which was indicated as the relative quantity, and the increase in HIV-1 RNA levels in the presence of a drug was compared with that without a drug.
FIGURE 1 (A,B) The increase in viral production from ACH-2 cells (A) and U1 cells (B) was examined by supernatant p24 antigen levels on day 2. (C,D) Changes in the intracellular HIV-1 mRNA levels due to treatment with these drugs in ACH-2 cells (C) and U1 cells (D) after 24 h of incubation.

[4] = tested on: HIV-1 NL4-3; test: Antiviral assay, HIV-1 NL4-3 in MT-4 cells; type: cell-based; details: for antiviral effect when combined with EFdA: HIV-1 NL4-3 in MT-4 cells; for replication of HIV-1 NL4-3 (supernatant p24): MT-4 cells, cultured for 12 days, single drug
Description: Antiviral assays using wild type HIV-1 (HIV-1 NL4-3) cells and MT-4 cells were conducted as previously described ([Maeda et al., 2014]; [Takamatsu et al., 2015]). To determine the cytotoxicity induced by LRAs and its related compounds, cells (5 × 10^5 cells/mL) were cultured in the presence or absence of LRA. After 24 h, cytotoxicity assays were performed using a Cytotoxicity LDH Assay Kit (Dojindo, Kumamoto, Japan) according to the manufacturer’s instructions. The number of living cells with the drug was measured and compared with those without the drug, and data are shown as percentage (%) of control.
Supplementary file Data_Sheet_1.PDF: FIGURE S1 The combined effect of an RT inhibitor (EFdA/MK-8591) ([Nakata et al., 2007]; [Kawamoto et al., 2008]; [Maeda et al., 2014]) and PKC activator (PEP005) on the replication of HIV-1 NL4-3 in MT-4 cells. MT-4 cells were infected with HIV-1 NL4-3 in the presence or absence of drug(s), cultured for 12 days, and the supernatant p24 levels were measured. Click here for additional data file.

[5] = tested on: ACH-2 cells; test: FACS analysis of active caspase-3 expression; type: cell-based; details: for percentage of active caspase-3 cells: ACH-2 cells, 24 h
Description: Intracellular HIV-1 p24 levels and active form of caspase-3 expression were determined as previously described ([Hattori et al., 2009]; [Duro et al., 2010]; [Matsuda et al., 2015]). In brief, ACH-2 cells or U1 cells (2.5 × 10^5 cells/mL) were fixed with 1% paraformaldehyde/phosphate buffered saline (PBS) for 20 min and were permeabilized with Flow Cytometry Perm Buffer (TONBO biosciences, San Diego, CA, United States). After incubation on ice for 5 min, the cells were stained with anti-HIV-1 p24 (24-4)-FITC mAb (Santa Cruz Biotechnology, Dallas, TX, United States) and/or with Alexa Fluor 647-conjugated anti-active caspase-3 mAb (C92-605) (BD Pharmingen, San Diego, CA, United States) for 30 min on ice. Cells were then analyzed on a BD FACSVerse flow cytometer (BD Biosciences, Franklin Lakes, NJ, United States). The corrected data were analyzed with FlowJo software (Tree Star, San Carlos, CA, United States).
FIGURE 3 (A,B) ACH-2 (A) and U1 cells (B) were treated with birinapant (50 nM), PEP005 (5 nM), birinapant plus PEP005, TNF-α (10 ng/ml), and intracellular expression of caspase-3 was examined after 24 h of incubation. The percentage of active caspase-3 cells was determined by comparison with unstimulated cells. (C) ACH-2 cells after 24 h of PEP005 (0∼50 nM) treatment with or without birinapant (50 nM) were separately analyzed in p24^+ and p24^- populations for caspase-3 expression.
FIGURE 4 (A) ACH-2 cells were exposed to birinapant (50 nM), PEP005 (5 nM), birinapant plus PEP005, TNF-α (10 ng/ml), or birinapant plus TNF-α treatment and were cultured for 5 days, and data (FACS analysis) were collected at days 1, 3, and 5. (B) Expression of active caspase-3 in p24^+/^- populations is shown. (C) Changes in the supernatant p24 antigen levels in the presence of drug(s) on days 1, 3, and 5. […]

[6] = birinapant 50 nM, PEP005 5 nM, TNF-α 10 ng/ml

Row | Compound | ratio of dead cells (PI staining) [1] | cell toxicity / replication of ACH-2 cells [2] | number of living cells ([2]; day 5, PEP005 5 nM) [mL⁻¹] | viral production (supernatant p24 antigen levels) [3] | antiviral effect when combined with EFdA [4] | replication of HIV-1 NL4-3 (supernatant p24) [4] | Active caspase-3 ([5]; ACH-2, 24 h, p24 (+) cells, Birinapant (-), PEP005 50nM) [%] | Active caspase-3 ([5]; ACH-2, 24 h, p24 (-) cells, Birinapant (-), PEP005 50nM) [%] | Active caspase-3 ([5]; ACH-2, Day 5, p24 (+) cells, birinapant 50 nM, PEP005 5 nM, TNF-α 10 ng/ml) [%] | percentage of active caspase-3 cells [5, 6] [%]
1 | C/C=C(/C)C(=O)O[C@H]1C(C)=C[C@]23C(=O)[C@@H](C=C(CO)[C@@H](O)[C@]12O)[C@H]1[C@@H](C[C@H]3C)C1(C)C [PEP005, ingenol-3-angelate] | failed to increase the number of dead cells | strongly inhibited the replication of ACH-2 cells | 370000 | increased viral production | no additive/synergistic antiviral effect | little to no effect on viral replication | 13.0 | 44.7 | ~20.7 | 9.98
2 | CC[C@H](NC(=O)[C@H](C)NC)C(=O)N1C[C@@H](O)C[C@H]1Cc1c(-c2[nH]c3cc(F)ccc3c2C[C@@H]2C[C@H](O)CN2C(=O)[C@H](CC)NC(=O)[C@H](C)NC)[nH]c2cc(F)ccc12 [Birinapant] | slightly increased the ratio of dead cells | failed to show cell toxicity | – | only had a minor effect on HIV-1 reactivation | no additive/synergistic antiviral effect | little to no effect on viral replication | – | – | – | 2.96

Reference: publication PMC6156138, “Combination of a Latency-Reversing Agent With a Smac Mimetic Minimizes Secondary HIV-1 Infection in vitro” (Frontiers in Microbiology, 2018)
